Measurements from PMC10901194, “Boronic acid inhibitors of penicillin-binding protein 1b: serine and lysine labelling agents” (Journal of Enzyme Inhibition and Medicinal Chemistry, 2024).
In brackets after ≈: the same amount, converted by molar mass. Several values for one entry are separate records, joined by “and”; a condition that tells them apart may be missing. Equal values may be shown once. Read-outs that look alike come from different tables or passages of the source.

What was measured:
PBP1b [1] = target: T1, PBP1b (Streptococcus pneumoniae, UniProt Q7CRA4); experiment: PBP1b inhibition, hydrolysis of thioester substrate analogue (residual activity, IC50); type: biochemical
Experimental: The inhibitory activity of 26 compounds was tested in the assay[31] employing a thioester substrate analogue at a concentration of 500 and 50 µM (Table S1).
Residual activities were determined by the ability of a potential inhibitor to hinder the hydrolysis of substrate analogue thioester (2-((benzoyl-D-alanyl)thio)acetic acid) as already described. PBP1b, prepared according to literature[31] (0.8 µM), was incubated with potential inhibitor (final concentration 500 µM) in 10 mM sodium phosphate buffer (pH = 7.0) in the presence of 100 mM D-alanine, 0.01 mg/mL BSA, and 0.01% Triton-X-100 for 60 min at 25 °C. After preincubation, the 5,5′-dithiobis-(2-nitrobenzoic acid) (DTNB) and thioester were added to each well to initiate the reaction and to obtain a final concentration of 1 mM and 5 mM, respectively. The final volume of the reaction was 150 µL. The initial rate of thioester hydrolysis was determined by measuring the absorbance at 412 nm for 30 min using a microtiter 96-well plate and Biotek Synergy H4 Hybrid microplate reader. The same assay was performed in the absence of an inhibitor. […] All experiments were run in triplicate. The ratio of the rate of reaction with inhibitor to the rate of reaction without compound expressed as a percentage gives the (RA [%] = ((vi – b)/(vo – b)) * 100, where b is the blank value for the initial rate of spontaneous hydrolysis of the thioester in the presence of the potential inhibitor and in the absence of PBP1b). The IC50 values were determined by measuring the reaction rates at seven different inhibitor concentrations.

E. coli (ATCC 25922) = experiment: Antimicrobial testing, broth microdilution (MIC); type: cell-based; conditions: Escherichia coli, ATCC25922; E. coli ATCC 25922, 20 h at 35 °C
Experimental: (§1) Antimicrobial testing was carried out by the broth microdilution method in 96-well plate format following the CLSI guidelines and European Committee for Antimicrobial Susceptibility Testing recommendations. Bacterial suspension of specific bacterial strain equivalent to 0.5 McFarland turbidity standard was diluted with cation-adjusted Mueller Hinton broth to obtain a final inoculum of 10^5 CFU/mL. Compounds dissolved in DMSO and inoculum were mixed together and incubated for 20 h at 35 °C. After incubation the minimal inhibitory concentration (MIC) values were determined by visual inspection as the lowest dilution of compounds showing no turbidity. The MICs were determined against S. aureus (ATCC 29213) and E. coli (ATCC 25922) bacterial strains. Tetracycline was used as a positive control on every assay plate.

S. aureus (ATCC 29213) = experiment: Antimicrobial testing, broth microdilution (MIC); type: cell-based; conditions: Staphylococcus aureus, ATCC29213; S. aureus ATCC 29213, 20 h at 35 °C
Experimental: as §1

PBP1b [2] = target: T1, PBP1b; experiment: LC-MS/MS covalent labelling of PBP1b; type: binding; conditions: 450-fold excess of compound, 45 °C, 2 h
Experimental: Further experimental study of 2-formylbenzeneboronic acid 29 and 30 was performed to characterise their binding.
The measurements were preformed analogously to those reported in Kollár et al. and Petri et al.[68]^,[69] The protein stock solution (20.0 µL and 37.0 µM) was diluted with buffer solution (20.0 µL; pH 7.0; 20 mM Hepes, 100 mM NaCl, 1 mM EDTA, and 10% glycerol), then the stock solution of the inhibitor (0.66 µL, 500 mM in DMSO) was added. The sample was incubated at 45 °C for 120 min and then subjected to LC-MS/MS measurements. The molecular weights of the conjugates of PBP1b were identified using a Triple TOF 5600+ hybrid Quadrupole-TOF LC/MS/MS system (Sciex, Singapore, Woodlands) equipped with a DuoSpray IonSource coupled with a Shimadzu Prominence LC20 UFLC (Shimadzu, Kyoto, Japan) system consisting of binary pump, an autosampler and a thermostated column compartment.
Data acquisition and processing were performed using Analyst TF software version 1.7.1 (AB Sciex Instruments, Redwood City, CA). Chromatographic separation was achieved on a Merck BIOshell^TM 400 Å Protein C18 (75 mm × 2.1mm, 3.4 µm, 400 Å) HPLC column. Sample was eluted in gradient elution mode using solvent A (0.1% formic acid in water) and solvent B (0.1% formic acid in ACN). […]

[3] = 1 h, pH 7, Table S1, 50 µM, 60 min preincubation; read-out: RA%@50µM PBP1b S.pneumoniae, 60 min preincubation
[4] = 1 h, pH 7, Table S1, 500 µM, 60 min preincubation; read-out: RA%@500µM PBP1b S.pneumoniae, 60 min preincubation
[5] = PBP1b 0.8 µM, 60 min preincubation at 25 °C, thioester substrate; read-out: IC50
[6] = 1 h, pH 7, residual activity at 500 µM inhibitor, 60 min preincubation; read-out: RA [%] @500 µM

SMILES | IC50 (PBP1b [1]; [5]) | MIC (E. coli (ATCC 25922)) | MIC (S. aureus (ATCC 29213)) | activity at 500 µM (PBP1b [1]; [6]) | further results
C[C@H]1[C@H](NC(=O)/C(=N\OC(C)(C)C(=O)O)c2csc(N)n2)C(=O)N1S(=O)(=O)O [Aztreonam, reference compound] | – | – | – | – | activity at 500 µM (PBP1b [1]; 1 h, pH 7, read-out: RA [%] @500 µM): 1.4 ± 0.1%; IC50 (PBP1b [1]; IC50, PBP1b 0.8 µM, 60 min preincubation at 25 °C, thioester substrate): < 0.8 µM
CC(NC(=O)c1ccc(B(O)O)cc1)C1CCC(F)(F)CC1 (stereo not shown) [Compound 1] | 127 ± 14.4 µM | > 250 µM | > 250 µM | – | activity at 50 µM (PBP1b [1]; [3]): 78.8 ± 2.7%; activity at 500 µM (PBP1b [1]; [4]): < 50%
O=C(c1ccn(-c2cccc([N+](=O)[O-])c2)n1)N1CCC(B(O)O)C1 (stereo not shown) [Compound 2] | 206 ± 21.7 µM | > 250 µM | 125 µM (≈ 41.3 µg/mL) | – | activity at 50 µM (PBP1b [1]; [3]): 83.5 ± 0.1%; activity at 500 µM (PBP1b [1]; [4]): < 50%
Cc1cc(C(=O)N2CCC(B(O)O)C2)ccn1 (stereo not shown) [Compound 3] | – | – | – | 86.3 ± 8.4% | –
O=C(C1Cc2cccc(F)c2O1)N1CCC(B(O)O)C1 (stereo not shown) [Compound 4] | – | – | – | 60.9 ± 7.6% | –
CCC(=O)Nc1cccc(C(=O)N2CCC(B(O)O)C2)c1 (stereo not shown) [Compound 5] | – | – | – | 85.7 ± 9.5% | –
Cn1cc(C(=O)N2CCC(B(O)O)C2)nn1 (stereo not shown) [Compound 6] | – | – | – | 81.1 ± 1.6% | –
Cn1cc(C(=O)NCB(O)O)nn1 [Compound 8] | ~213 µM and 213 µM | > 250 µM | > 250 µM | – | –
O=C(NCB(O)O)c1ccccc1F [Compound 9, reference compound] | 28.2 ± 7.4 µM | > 250 µM | > 250 µM | – | free energy gain in complex formation (ΔGdc) (PBP1b [1]; from IC50 accepted as approximation to Ki): -6.2 kcal/mol
CC1(C)OB(C(CC(=O)Nc2ccccc2)NC(=O)c2ccccc2F)OC1(C)C (stereo not shown) [Compound 17] | – | – | – | 48.1 ± 2% | –
CC1(C)OB(C(CC(=O)N(Cc2ccccc2)Cc2ccccc2)NC(=O)c2ccccc2F)OC1(C)C (stereo not shown) [Compound 18] | – | – | – | 66.3 ± 7% | –
O=C(NC(CC(=O)N(Cc1ccccc1)Cc1ccccc1)B(O)O)c1ccccc1F (stereo not shown) [Compound 19] | – | > 250 µM | 62.5 µM (≈ 27.1 µg/mL) | 68.9 ± 8.2% | –
O=Cc1ccccc1B(O)O [Compound 29] | 119 ± 6 µM | > 250 µM | > 250 µM | – | labelling of PBP1b in MS/MS experiments (PBP1b [2]): single labelling of PBP1b was observed; PBP1b inhibition (in words) (PBP1b [1]): inhibitors of PBP1b; time-dependent inhibition (PBP1b [1]): No time-dependent inhibition
O=Cc1cc(C(F)(F)F)ccc1B(O)O [Compound 30] | 200 ± 15.3 µM | > 250 µM | > 250 µM | – | labelling of PBP1b in MS/MS experiments (PBP1b [2]): single labelling of PBP1b was observed; PBP1b inhibition (in words) (PBP1b [1]): inhibitors of PBP1b; time-dependent inhibition (PBP1b [1]): No time-dependent inhibition
CC(=O)c1ccccc1B(O)O [Compound 31] | – | – | – | – | PBP1b inhibition (in words) (PBP1b [1]): inactive; activity at 500 µM (PBP1b [1]; 1 h, pH 7; read-out: RA [%] @500 µM): 96.7%
CC1(C)OB(c2ccccc2CNc2ccccc2C=O)OC1(C)C [Compound 32] | – | – | – | 96.6 ± 0.6% | PBP1b inhibition (in words) (PBP1b [1]): does not inhibit PBP1b at 1 mM concentration
O=Cc1ccccc1NCc1ccccc1B(O)O [Compound 33] | – | – | – | 56.9 ± 0.8% | PBP1b inhibition (in words) (PBP1b [1]): slight activity in the millimolar concentration range
